test: Glass transition temperature (Tg) of derivatized carbohydrates, by DSC; format: physicochemical; details: derivatized carbohydrate alone, Tables 1-4
From the text: The reaction product can be characterized structurally by methods known in the art, including, but not limited to, nuclear magnetic resonance spectroscopy (NMR) and its material science properties characterized by differential scanning calorimetry (DSC). The characteristic melting points and Tgs (glass transition temperatures) for the derivatized carbohydrates can also be determined by DSC and other methods known in the art.
The carbohydrate derivatives were routinely synthesized by standard esterification of the carbohydrate with the chloride of the desired hydrocarbon side chain under anhydrous conditions and the resulting derivatives purified by standard techniques of solvent extraction and re-crystallization. For example, trehalose octa-3,3-dimethylbutyrate was synthesized by reacting 3,3,-dimethylbutyroyl chloride with trehalose in anhydrous pyridine, followed by extraction with ether, hydrochloric acid, potassium carbonate solution and water and finally re-crystallized twice from alcohol to yield colorless, needle-like crystals (˜80% yield) of m.pt 138-140° C., αD 112°. Trehalose hexa-3,3-dimethylbutyrate (THEX) can be prepared by protecting the 6,6′-hydroxy group of trehalose with a bulky group such as trityl or t-butyldiphenylsilyl, for example by heating trehalose and trityl chloride in pyridine. The 6,6′-ditrityltrehalose can be acylated with 3,3-dimethylbutyroyl chloride in pyridine to give 6,6′-ditritylhexa-3,3-dimethylbutyryltrehalose. The trityl group can be removed by strong acid, for example hydrogen bromide in acetic acid, to give THEX. TACT can be prepared by acylating THEX with acetic anhydride in pyridine. Suitable work-up yields the HDC in crystalline form. The physical characteristics, melting points and glass transition temperatures (Tg, ° C.) of selected carbohydrate derivatives are shown in Tables 1-5.

Going from CC(=O)O[C@@H]1[C@@H](OC(C)=O)[C@@H](O[C@H]2O[C@H](COC(=O)CC(C)(C)C)[C@@H](OC(C)=O)[C@H](OC(C)=O)[C@H]2OC(C)=O)O[C@H](COC(=O)CC(C)(C)C)[C@H]1OC(C)=O [Trehalose 6,6′-di-(3,3-dimethylbutyrate) hexaacetate] to CC(=O)OCC1OC(OC2OC(COC(C)=O)C(OC(=O)C(C)C)C(OC(C)=O)C2OC(C)=O)C(OC(C)=O)C(OC(C)=O)C1OC(=O)C(C)C (stereo not drawn) [Trehalose 4,4′-diisobutyrate hexaacetate], the “Tg(° C.)” value falls from 50 °C to 41 °C.

First: Trehalose heptapivalate
Second: CO[C@@H]1O[C@H](COC(C)=O)[C@@H](O[C@@H]2O[C@H](COC(C)=O)[C@@H](OC(C)=O)[C@H](OC(C)=O)[C@H]2OC(C)=O)[C@H](OC(C)=O)[C@H]1OC(C)=O [β-Cellobiose methyl heptaacetate]
The “Tg(° C.)” value of the first is lower: 73 °C for the first, 77 °C for the second.

Going from CCC(=O)OC1C(COC(C)=O)OC(OC2OC(COC(C)=O)C(OC(=O)CC)C(OC(C)=O)C2OC(C)=O)C(OC(C)=O)C1OC(C)=O (stereo not drawn) [Trehalose 4,4′-dipropionate hexaactetate] to Trehalose pentapivalate, the “Tg(° C.)” value rises from 42 °C to 81 °C.

First: CC(=O)OC[C@H]1O[C@@H](O[C@H]2[C@H](OC(C)=O)[C@@H](OC(C)=O)[C@@H](OC(C)=O)O[C@@H]2COC(C)=O)[C@H](OC(C)=O)[C@@H](OC(C)=O)[C@H]1OC(C)=O [α-Lactose octaacetate, reference compound]
Second: CC(=O)OC[C@H]1O[C@@H](O[C@H]2[C@H](OC(C)=O)[C@@H](OC(C)=O)[C@H](OC(=O)C(C)C)O[C@@H]2COC(C)=O)[C@H](OC(C)=O)[C@@H](OC(C)=O)[C@H]1OC(C)=O [β-Lactose isobutyrate heptaacetate]
The “Tg(° C.)” value of the first is higher: 70 °C for the first, 60 °C for the second.

Going from Trehalose tetrapivalate to CC(=O)OC[C@H]1O[C@@H](O[C@H]2[C@H](OC(C)=O)[C@@H](OC(C)=O)C(OC(C)=O)O[C@@H]2COC(C)=O)[C@H](OC(C)=O)[C@@H](OC(C)=O)[C@H]1OC(C)=O (stereo partly drawn) [α, β-Lactose octaacetate, reference compound], the “Tg(° C.)” value falls from 96 °C to 67 °C.

Going from CC(=O)OC1C(COC(=O)C(C)(C)C)OC(OC2OC(COC(=O)C(C)(C)C)C(OC(C)=O)C(OC(C)=O)C2OC(C)=O)C(OC(C)=O)C1OC(C)=O (stereo not drawn) [Trehalose 6,6′ dipivalate hexaacetate] to CCC(=O)OCC1O[C@@H](O[C@H]2OC(COC(=O)CC)[C@@H](OC(=O)CC)[C@H](OC(=O)CC)C2OC(=O)CC)C(OC(=O)CC)C(OC(=O)CC)[C@H]1OC(=O)CC (stereo partly drawn) [Trehalose octapropionate, reference compound], the “Tg(° C.)” value falls from 56 °C to 3 °C.

Going from CC(C)(C)CC(=O)OC[C@H]1O[C@@H](O[C@H]2[C@H](OC(=O)CC(C)(C)C)[C@@H](OC(=O)CC(C)(C)C)[C@@H](OC(=O)CC(C)(C)C)O[C@@H]2COC(=O)CC(C)(C)C)[C@H](OC(=O)CC(C)(C)C)[C@@H](OC(=O)CC(C)(C)C)[C@H]1OC(=O)CC(C)(C)C [α-Lactose octa-3,3-dimethyl-butyrate] to CC(C)C(=O)OCC1O[C@@H](O[C@H]2OC(COC(=O)C(C)C)[C@@H](OC(=O)C(C)C)[C@H](OC(=O)C(C)C)C2OC(=O)C(C)C)C(OC(=O)C(C)C)C(OC(=O)C(C)C)[C@H]1OC(=O)C(C)C (stereo partly drawn) [Trehalose octaisobutyrate], the “Tg(° C.)” value falls from 53 °C to 7 °C.

Compared with CC(=O)OC[C@H]1O[C@@H](O[C@H]2[C@H](OC(C)=O)[C@@H](OC(C)=O)[C@H](OC(C)=O)O[C@@H]2COC(C)=O)[C@H](OC(C)=O)[C@@H](OC(C)=O)[C@H]1OC(C)=O [β-Lactose octaacetate, reference compound], CCO[C@@H]1O[C@H](COC(C)=O)[C@@H](O[C@@H]2O[C@H](COC(C)=O)[C@@H](OC(C)=O)[C@H](OC(C)=O)[C@H]2OC(C)=O)[C@H](OC(C)=O)[C@H]1OC(C)=O [β-Cellobiose ethyl heptaacetate] is lower in “Tg(° C.)” value: 63 °C for the first, 52 °C for the second.

Compared with CCC(C)(C)C(=O)OC[C@H]1O[C@H](O[C@H]2O[C@H](COC(=O)C(C)(C)CC)[C@@H](OC(C)=O)[C@H](OC(C)=O)[C@H]2OC(C)=O)[C@H](OC(C)=O)[C@@H](OC(C)=O)[C@@H]1OC(C)=O [Trehalose 6,6′di-(2,2-dimethylbutyrate) hexaacetate], CC(C)(C)C(=O)OC[C@H]1O[C@@H](O[C@H]2[C@H](OC(=O)C(C)(C)C)[C@@H](OC(=O)C(C)(C)C)[C@H](OC(=O)C(C)(C)C)O[C@@H]2COC(=O)C(C)(C)C)[C@H](OC(=O)C(C)(C)C)[C@@H](OC(=O)C(C)(C)C)[C@H]1OC(=O)C(C)(C)C [β-Lactose octapivalate] is higher in “Tg(° C.)” value: 47 °C for the first, 88 °C for the second.

Going from CCC(=O)OC[C@H]1O[C@@H](O[C@H]2[C@H](OC(=O)CC)[C@@H](OC(=O)CC)[C@H](OC(=O)CC)O[C@@H]2COC(=O)CC)[C@H](OC(=O)CC)[C@@H](OC(=O)CC)[C@@H]1OC(=O)CC [β-Cellobiose octapropionate, reference compound] to CC(=O)OC1C(COC(=O)C(C)C)OC(OC2OC(COC(=O)C(C)C)C(OC(C)=O)C(OC(C)=O)C2OC(C)=O)C(OC(C)=O)C1OC(C)=O (stereo not drawn) [Trehalose 6,6′-diisobutyrate hexaacetate], the “Tg(° C.)” value rises from 15 °C to 42 °C.

Compared with CCC(=O)OC[C@H]1O[C@H](O[C@H]2O[C@H](COC(=O)CC)[C@@H](OC(C)=O)[C@H](OC(C)=O)[C@H]2OC(C)=O)[C@H](OC(C)=O)[C@@H](OC(C)=O)[C@@H]1OC(C)=O [Trehalose 6,6′-dipropionate hexaactetate], CCC(CC)C(=O)OC[C@H]1O[C@H](O[C@H]2O[C@H](COC(=O)C(CC)CC)[C@@H](OC(C)=O)[C@H](OC(C)=O)[C@H]2OC(C)=O)[C@H](OC(C)=O)[C@@H](OC(C)=O)[C@@H]1OC(C)=O [Trehalose 6,6′-di-(2-ethylbutyrate) hexaacetate] is lower in “Tg(° C.)” value: 43 °C for the first, 30 °C for the second.

First: CC(C)C(=O)OCC1O[C@H](OCC2O[C@@H](O[C@]3(COC(=O)C(C)C)O[C@H](COC(=O)C(C)C)[C@@H](OC(=O)C(C)C)[C@H]3OC(=O)C(C)C)C(OC(=O)C(C)C)[C@@H](OC(=O)C(C)C)[C@@H]2OC(=O)C(C)C)C(OC(=O)C(C)C)[C@@H](OC(=O)C(C)C)[C@H]1OC(=O)C(C)C (stereo partly drawn) [Raffinose undeca-isobutyrate]
Second: CC(=O)O[C@@H]1[C@@H](OC(=O)CC(C)(C)C)[C@@H](OC(=O)CC(C)(C)C)O[C@H](COC(=O)CC(C)(C)C)[C@H]1O[C@@H]1O[C@H](COC(=O)CC(C)(C)C)[C@H](OC(=O)CC(C)(C)C)[C@H](OC(=O)CC(C)(C)C)[C@H]1OC(=O)CC(C)(C)C [α-Lactose 3-acetyl-hepta-3,3-dimethylbutyrate]
The “Tg(° C.)” value of the first is lower: 15 °C for the first, 48 °C for the second.

For CCCCC(=O)OCC1OC(OC2OC(COC(=O)CCCC)C(OC(=O)CCCC)C(OC(=O)CCCC)C2OC(=O)CCCC)C(OC(=O)CCCC)C(OC(=O)CCCC)C1OC(=O)CCCC (stereo not drawn) [Trehalose octavalerate, reference compound], the “Tg(° C.)” value was “syrup”.
For CCCC(=O)OC[C@H]1O[C@H](O[C@H]2O[C@H](COC(=O)CCC)[C@@H](OC(=O)CCC)[C@H](OC(=O)CCC)[C@H]2OC(=O)CCC)[C@H](OC(=O)CCC)[C@@H](OC(=O)CCC)[C@@H]1OC(=O)CCC [Trehalose octabutyrate, reference compound], the “Tg(° C.)” value was “syrup”.

same assay, conditions: derivatized carbohydrate without active, Table 5

In the case of Trehalose diisobutyrate hexaacetate, the “Tg(° C.)” value is reported as 42 °C.

test: Tg of HDC formulations with incorporated active; format: physicochemical; details: hydrophilic active (diltiazem hydrochloride) incorporated
From the text: The model hydrophilic drug, diltiazem hydrochloride (“hydrophilic active”), was incorporated (10% loading) into solid vehicles of the single straight chain HDC trehalose octaacetate or the branched chain HDCs trehalose octa-3,3, dimethylbutyrate and trehalose octapivalate as well as composite formulations (1:1 ratio) of the two branched-chain HDCs or the straight chain HDC trehalose octaacetate and the branched chain HDC trehalose octapivalate, by quenching from the melt. Release of the active from the HDC solid dose delivery vehicle was assessed using an in vitro USP (volume 23) type 2 dissolution test in saline containing 0.1% sodium cholate as the dissolution medium.
The model hydrophilic drug diltiazem hydrochloride was also incorporated (5% loading) into solid vehicles of the single branched chain HDCs trehalose diisobutyrate hexaacetate and trehalose octapivalate and composite formulations (1:1 ratio) of the two branched-chain HDCs by solvent removal by rotary evaporation, in a Buchi Rotavapor R-124, of a 20% solution of active plus HDCs in a dichloromethane: acetone mixed solvent (9:1 ratio) system. […] (trehalose octapivalate) of the single branched-chain HDC formulations of active.
The model hydrophobic steroid fluticasone propionate (“hydrophobic active”) was incorporated (5% loading) into solid vehicles of the single straight chain HDC trehalose octaacetate or the branched chain HDCs trehalose octa-3,3, dimethylbutyrate and trehalose dipropanoate hexaacetate and composite formulations (1:1 ratio) of the two branched-chain HDCs by either quenching from the melt or solvent evaporation by rotary evaporation. Melt incorporation was carried out by melting the HDCs at 150-170° C. and dissolving the active in the melt at 120-140° C. Rotary evaporation was carried out using a Buchi Rotavapor R-124 using a 20% solution of active plus HDCs in a dichloromethane: acetone mixed solvent (9:1 ratio) system. The hydrophobic active was also incorporated into solid vehicles of the branched chain HDCs, trehalose octapivalate, trehalose diisobutyrate hexaacetate and lactose isobutyrate heptaacetate, either by quenching from the melt or solvent evaporation by rotary evaporation. Release of hydrophobic active from the HDC solid dose delivery vehicle was assessed using an in vitro USP (volume 23) type 2 dissolution test in saline containing 0.1% sodium cholate as the dissolution medium.
As an example of a polypeptide drug, the polypeptide hormone insulin (“polypeptide active”) was incorporated (10% loading) into solid vehicles of the single branched chain HDCs trehalose diisobutyrate hexaacetate and trehalose hexapivalate and composite formulations of the branched chain HDCs trehalose diisobutyrate hexaacetate and trehalose octapivalate (8:1 ratio) by solvent removal by lyophilization of a 20% solution of insulin plus HDCs in dimethylsulfoxide. […] Release of active from the HDC solid dose delivery vehicle was assessed using an in vitro USP (volume 23) type 2 dissolution test in saline containing 0.1% sodium cholate as the dissolution medium.

With Trehalose diisobutyrate hexaacetate the “Tg (° C.) with active incorporated” value was 46.5 °C.

same assay, conditions: hydrophobic active (fluticasone propionate, 5% loading) incorporated

In the case of Trehalose diisobutyrate hexaacetate, the “Tg (° C.) with active incorporated” value is reported as 50 °C.

same assay, conditions: polypeptide active (insulin, 10% loading) incorporated by lyophilization from dimethylsulfoxide

In the case of Trehalose diisobutyrate hexaacetate, the “Tg (° C.) with active incorporated” value is reported as 50.1 °C.

— US6352722B1, “Derivatized carbohydrates, compositions comprised thereof and methods of use thereof” (Quadrant Holdings Cambridge Limited, priority 1997, dated 2002)
